Holding throughout (type): biochemical
Test [1] deals with T1, human insuline receptor (Ins-R) (Homo sapiens, UniProt P06213).
T1 construct: GST-tagged recombinant kinase domain of the human insuline receptor; GST; purchased ProQinase, Freiburg, Germany; host or cells: SF-9 cells
As to the kind of experiment: Insulin Receptor HTRF Assay (assay 4). The conditions noted are these: pIC50 class; 10 μM ATP; read-out: Enzymatic InsR activity (assay 4). The procedure: Assay 4: Insulin Receptor HTRF Assay
Inhibitory activity of compounds against the kinase activity of the insulin receptor was quantified employing the Ins-R HTRF assay as described in the following paragraphs.
GST-tagged recombinant kinase domain of the human insuline receptor (Ins-R, purchase from ProQinase, Freiburg, Germany) expressed in SF-9 cells was used as kinase. As substrate for the kinase reaction biotinylated poly-(Glu, Tyr) (Cis biointernational, France) was used.
Ins-R was incubated for 20 min at 22° C. in the presence of different concentrations of test compounds in 5 μl assay buffer [50 mM Hepes/NaOH pH 7, 15 mM MnCl2, 1 mM dithiothreitol, 0.1 μM sodium ortho-vanadate, 0.015% (v/v) PEG20000, 10 μM adenosine-tri-phosphate (ATP), 0.3 μg/ml substrate, 1% (v/v) dimethylsulfoxide]. The concentration of Ins-R was adjusted depending of the activity of the enzyme lot and was chosen appropriate to have the assay in the linear range, typical concentrations were in the range of 10 pg/μl. The reaction was stopped by the addition of 5 μl of a solution of HTRF detection reagents (0.1 μM streptavidine-XLent and 1 nM PT66-Eu-Chelate, an europium-chelate labelled anti-phospho-tyrosine antibody from Perkin Elmer) in an aqueous EDTA-solution (80 mM EDTA, 0.2% (w/v) bovine serum albumin in 50 mM HEPES/NaOH pH 7.0).
(§1) The resulting mixture was incubated 1 h at 22° C. to allow the binding of the biotinylated phosphorylated peptide to the streptavidine-XLent and the PT66-Eu-Chelate. Subsequently the amount of phosphorylated substrate was evaluated by measurement of the resonance energy transfer from the PT66-Eu-Chelate to the streptavidine-XLent. Therefore, the fluorescence emissions at 620 nm and 665 nm after excitation at 350 nm was measured in a HTRF reader, e.g. a Rubystar (BMG Labtechnologies, Offenburg, Germany) or a Viewlux (Perkin-Elmer). The ratio of the emissions at 665 nm and at […] was taken as the measure for the amount of phosphorylated substrate. The data were normalised (enzyme reaction without inhibitor=0% inhibition, all other assay components but no enzyme=100% inhibition) and IC50 values were calculated by a 4 parameter fit using an inhouse software.

The target of the next test is T2, human VEGFR2 (Homo sapiens, UniProt P35968).
T2 construct: GST-tagged recombinant kinase domain of the human VEGFR2; GST; host or cells: SF-9 cells
T2 sequence (P35968 834-1162 limits assumed): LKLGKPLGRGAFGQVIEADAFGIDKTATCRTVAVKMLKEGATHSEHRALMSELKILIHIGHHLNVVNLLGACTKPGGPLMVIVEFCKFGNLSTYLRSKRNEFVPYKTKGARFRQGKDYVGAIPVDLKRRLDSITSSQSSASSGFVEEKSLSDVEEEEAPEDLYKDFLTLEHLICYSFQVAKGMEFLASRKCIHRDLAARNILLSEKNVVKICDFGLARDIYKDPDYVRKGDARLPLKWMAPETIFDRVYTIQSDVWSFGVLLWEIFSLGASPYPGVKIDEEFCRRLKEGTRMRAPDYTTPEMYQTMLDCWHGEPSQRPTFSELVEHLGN
Description: VEGFR2 HTRF Assay (assay 5). The conditions noted are these: pIC50 class; 10 μM ATP; read-out: Enzymatic VEGFR2 activity (assay 5).
Text: Assay 5: VEGFR2 HTRF Assay
VEGFR2 inhibitory activity of compounds of the present invention was quantified employing the VEGFR2 HTRF assay as described in the following paragraphs.
GST-tagged recombinant kinase domain of the human VEGFR2 expressed in SF-9 cells was used as kinase. As substrate for the kinase reaction the biotinylated peptide biotin-Ahx-DFGLARDMYDKEYYSVG (C-terminus in acid form) was used which can be purchased e.g. form the company Biosynthan GmbH (Berlin-Buch, Germany). VEGFR2 was incubated for 45 min at 22° C. in the presence of different concentrations of test compounds in 5 μl assay buffer [50 mM Hepes/NaOH pH 7.0, 25 mM MgCl2, 5 mM MnCl2, 1.0 mM dithiothreitol, 0.1 mM sodium ortho-vanadate, 10 μM adenosine-tri-phosphate (ATP), 0.5 μM substrate, 0.001% (v/v) Nonidet-P40 (Sigma), 1% (v/v) dimethylsulfoxide]. The concentration of VEGFR2 was adjusted depending of the activity of the enzyme lot and was chosen appropriate to have the assay in the linear range. The reaction was stopped by the addition of 5 μl of a solution of HTRF detection reagents (0.1 μM streptavidine-XLent and 2 nM PT66-Eu-Chelate, an europium-chelate labelled anti-phospho-tyrosine antibody from Perkin Elmer) in an aqueous EDTA-solution (125 mM EDTA, 0.2% (w/v) bovine serum albumin in 50 mM HEPES/NaOH pH 7.0).
as §1, with “incubated for” for “incubated”, “normalized” for “normalised”

For the next test, the target named is T3, Tie-2 (Homo sapiens, UniProt Q02763).
T3 construct: fusion protein of GST and the intracellular domains of Tie-2; GST; made in house; host or cells: insect cells (Hi-5)
T3 sequence (Q02763 770-1124 limits assumed, species assumed): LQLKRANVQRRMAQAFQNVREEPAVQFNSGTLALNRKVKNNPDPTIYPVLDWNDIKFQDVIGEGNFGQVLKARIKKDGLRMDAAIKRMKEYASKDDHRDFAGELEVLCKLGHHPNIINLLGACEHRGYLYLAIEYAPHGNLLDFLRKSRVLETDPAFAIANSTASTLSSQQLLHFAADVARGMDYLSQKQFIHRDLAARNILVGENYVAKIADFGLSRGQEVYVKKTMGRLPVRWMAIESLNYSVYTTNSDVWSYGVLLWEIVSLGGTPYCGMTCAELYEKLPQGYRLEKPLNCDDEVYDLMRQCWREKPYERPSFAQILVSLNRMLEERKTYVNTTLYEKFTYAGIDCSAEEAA
As to the kind of experiment: Tie-2-Kinase HTRF-Assay (assay 2). The conditions noted are these: pIC50 class; 10 μM ATP; read-out: Enzymatic Tie 2 activity (assay 2).
Text: Tie2-inhibitory activity of compounds of the present invention was quantified employing two Tie2 HTRF assay as described in the following paragraphs.
A recombinant fusion protein of GST and the intracellular domains of Tie-2, expressed in insect cells (Hi-5) and purified by Glutathion-Sepharose affinity chromatography was used as kinase. Alternatively, commercially available GST-Tie2-fusion protein (Upstate Biotechnology, Dundee, Scotland) can be used As substrate for the kinase reaction the biotinylated peptide biotin-Ahx-EPKDDAYPLYSDFG (C-terminus in amid form) was used which can be purchased e.g. from the company Biosynthan GmbH (Berlin-Buch, Germany). Detection of phosphorylated product is achieved specifically by a trimeric detection complex consisting of the phosphorylated substrate, streptavidin-XLent (SA-XLent) which binds to biotin, and Europium Cryptate-labeled anti-phosphotyrosine antibody PT66 which binds to phosphorylated tyrosine.
Tie-2 (3.5 ng/measurement point) was incubated for 60 min at 22° C. in the presence of 10 μM adenosine-tri-phosphate (ATP) and 1 μM substrate peptide (biotin-Ahx-EPKDDAYPLYSDFG-NH2) with different concentrations of test compounds (0 μM and concentrations in the range 0.001-20 μM) in 5 μl assay buffer [50 mM Hepes/NaOH pH 7, 10 mM MgCl2, 0.5 mM MnCl2, 1.0 mM dithiothreitol, 0.01% NP40, protease inhibitor mixture (“Complete w/o EDTA” from Roche, 1 tablet per 2.5 ml), 1% (v/v) dimethylsulfoxide]. The reaction was stopped by the addition of 5 μl of an aqueous buffer (25 mM Hepes/NaOH pH 7.5, 0.28% (w/v) bovine serum albumin) containing EDTA (90 mM) and the HTRF (Homogeneous Time Resolved Fluorescence) detection reagents streptavidine-XLent (0.2 μM, from Cis Biointemational, Marcoule, France) and PT66-Eu-Chelate (0.3 ng/μl; a europium-chelate labelled anti-phospho-tyrosine antibody from Perkin Elmer).
as §1, with “substrate peptide” for “substrate”, “substrate peptide.” for “substrate.”, “inhibitor=0 (%” for “inhibitor=0%”
Background: Time-resolved FRET reads energy transfer from a long-lived donor to a nearby acceptor.

Some results are limits rather than exact numbers.

Our source for the IC50 values is patent US8481539B2, “Alkynylaryl compounds and salts thereof, pharmaceutical compositions comprising same, methods of preparing same and uses of same” (Bayer Intellectual Property GmbH, priority 2007, dated 2013).

T1 sequence (P06213 1023-1298 limits assumed): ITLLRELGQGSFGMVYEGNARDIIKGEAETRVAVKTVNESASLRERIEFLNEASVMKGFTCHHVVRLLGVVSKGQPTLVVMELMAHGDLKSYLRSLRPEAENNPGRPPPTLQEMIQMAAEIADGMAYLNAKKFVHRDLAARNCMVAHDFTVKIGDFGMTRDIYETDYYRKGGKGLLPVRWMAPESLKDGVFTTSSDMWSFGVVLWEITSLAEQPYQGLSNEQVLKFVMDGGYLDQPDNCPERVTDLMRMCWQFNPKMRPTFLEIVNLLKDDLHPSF

Turning to `Cn1ncc2c(C#Cc3cc(NC(=O)Nc4cccc(C(F)(F)F)c4)ccc3F)cncc21` [Example 2.6, 1-[4-Fluoro-3-(1-methyl-1H-pyrazolo[3,4-c]pyridin-4-ylethynyl)-phenyl]-3-(3-trifluoromethyl-phenyl)-urea], the results for the IC50 (in test [1]; on human VEGFR2; on Tie-2) were no less than 10000 nM, less than 1000 nM and less than 1000 nM, respectively.
